Where “and” joins values, the source holds several entries; their conditions need not be identical. Equal entries are not always repeated.
Tests used:
[1] = test system: breast, prostate, head & neck and ovarian cancer cells; assay: MTT assay, growth inhibition in other cancer cells; assay type: cell-based; conditions: 10^−9 M to 10^−6 M, 3 or 5 days; more effective at 10^−7 M to 10^−6 M
Experimental: It was next determined whether deguelin can inhibit cell growth in cancer cells other than lung cancer cells. Cancer cells, such as breast, prostate, head & neck and ovarian cells were treated with 10^−6 M, 10^−7 M, 10^−8 M, or 10^−9 M deguelin for 3 or 5 days, and cell growth inhibition analyzed by MTT assay.

NHBE = assay: MTT assay, growth inhibition / viability of normal HBE cells; conditions: for Avg. % con / MTT value, mean of replicates (unheaded line) / MTT value, replicate (unheaded line): NHBE, 3 days
Experimental: Cells and Cell Cultures. […] Normal HBE (NHBE) cells were purchased from Clontech (Palo Alto, Calif.). […] Cells were grown on tissue culture plasticware (Falcon; Bector, Dickinson, Bedford, Mass.) at 37° C. in a humidified atmosphere with 5% C02. For the analyses of growth inhibition, cell cycle, and induction of apoptosis by deguelin, NHBE cells, HBE cell lines, and squamous HBE cells were cultured in KSFM (Life Technologies) containing 2 μg/ml of EGF and bovine pitutary extract.
Cell Treatment with Deguelin and Determination of Growth Inhibition. To measure the effects of deguelin on cell proliferation, NHBE, 1799 cells, 1198 cells, and 1170 cells were transferred onto 96-well plates at densities ranging from 2×10^3 to 4×10^3 cells/well. After 1 day, the cells were changed to the fresh medium containing various concentrations of deguelin dissolved in DMSO (final concentration, 0.1%). Control cultures received 0.1% dimethyl sulfoxide (DMSO) as did the deguelin-treated cultures. […] After 1 day of infection, cells were treated with 10^−7 M or 10^−6 M of deguelin, or 0.1% DMSO as a control, and then incubated for 2 days. […] Six replicate wells were used for each analysis.

H358 = assay: MTT assay, growth inhibition by deguelin or deguelin derivatives; assay type: cell-based; conditions: H358, 3 days
[2] = test system: cell line not named (Table 1); assay: MTT assay, growth inhibition by deguelin; assay type: cell-based; conditions: 3 days
H226B = assay: MTT assay, growth inhibition by deguelin or deguelin derivatives; assay type: cell-based; conditions: 3 days
[3] = test system: pAkt (Ser473) and pGSK-3β (Ser9) in 1799 cells; assay: Western blot of pAkt (Ser473) and pGSK-3β (Ser9); assay type: cell-based
Experimental: Immunoblotting. Whole cell lysates were prepared in lysis buffer (50 mM N-[2-[…]]-piperazine-N′-[2-ethanesulfonic acid] [HEPES; pH 7.5], 150 mM NaCl, 1.5 mM MgCl2, ImM EDTA, 0.2 mM EGTA, 1% NP40, 10% glycerol, 1 mM dithiothreitol (DTT), 1 mM phenylmethylsulfonyl fluoride, 20 mM sodium fluoride, 5 mM sodium orthovanadate, 10 μg/ml aprotinin, 10 μg/ml leupeptin, 2 μg/ml pepstatin, and 1 mM benzamidine) as described previously (Lee et al., 2002). Equivalent protein concentrations were resolved in sodium dodecyl sulfate-polyacrylamide gels and transferred to a nitrocellulose membrane. After the blocking of transblotted membrane in Tris-buffered saline (TBS) containing 0.05% Tween 20 (TBST) and 5% low fat milk, themembrane was incubated with primary antibody at the appropriate dilution in TBS-5% low-fat milk at 4° C. for 16 h and washed with TBST. The immunoblots were visualized using the ECL kit (Amersham, Inc., Arlington Heights, III) according to the manufacturer's directions. Rabbit polyclonal antibodies against human pAkt (Ser473), Akt, and pGSK-3β (Ser9), and mouse monoclonal antibody against human anti-pMAPK (Thr202/Tyr204) were purchased from Cell Signalinng Technology (Beverly, Mass.). […]

HUVEC cells = assay: HUVEC proliferation, MTT assay; assay type: cell-based; conditions: 0.1, 1 and 10 μM, 3 days
Experimental: FIGS. 9A-9D.—Anti-angiogenic activity of deguelin. (FIG. 9A) CAMs after incubation with Thermanox coverslips containing vehicle (Con), deguelin ([…]) or RA (1 μg) as a positive control or for 48 h (circle indicate the placement of coverslip). (FIG. 9B) The anti-angiogenic effect of deguelin was evaluated by calculating the percentage of positive eggs. □ empty coverslip as control; ▪ RA 1 μg/egg; ▪ deguelin 1 or 5 nmole/egg. Each value represents the mean±SE. (FIG. 9C) Appearance of matrigel from mice. The effects of deguelin on bFGF-induced angiogenesis in vivo was analyzed by matrigel plug assay using nude mouse. Matrigel alone (Con)—negative control, 100 ng/ml bFGF and 72 units/ml heparin in a vehicle of 0.1% BSA/PBS (bFGF)—positive control, 5 niole deguelin alone, and 5 nmole deguelin plus bFGF were included. (FIG. 9D) Proliferation of HUVEC cells treated with indicated doses of deguelin for 3 days was analyzed by MTT assay. Bars, means±SD of a representative experiment done in triplicate from five independently performed experiments for each cell line.
Inhibition of angiogenesis by deguelin was also evaluated using the Matrigel™ plug assay, an established in vivo angiogenesis model, using nude mice. […]

Structure (SMILES): COc1cc2c(cc1OC)[C@@H]1C(=O)c3ccc4c(c3O[C@@H]1CO2)C=CC(C)(C)O4 [Deguelin]
- cell proliferation in breast, prostate, head & neck and ovarian cancer cells [1]: inhibit cell proliferation in these cells in a dose dependent manner
- effect on NHBE viability (NHBE; MTT assay, 10^−9 M to 10^−7 M, up to 3 days): minimal effect
- Avg. % con (NHBE; deguelin 10^−6M): 0.23 % con
- MTT value, mean of replicates (unheaded line) (NHBE; deguelin 10^−6M): 0.099
- MTT value, replicate (unheaded line) (NHBE; deguelin 10^−6M): 0.129 and 0.082 and 0.087
- Avg. % con (NHBE; deguelin 10^−8M): 0.53 % con
- MTT value, mean of replicates (unheaded line) (NHBE; deguelin 10^−8M): 0.229
- MTT value, replicate (unheaded line) (NHBE; deguelin 10^−8M): 0.249 and 0.227 and 0.21
- Avg. % con (NHBE; deguelin 10^−10M): 0.81 % con
- MTT value, mean of replicates (unheaded line) (NHBE; deguelin 10^−10M): 0.347
- MTT value, replicate (unheaded line) (NHBE; deguelin 10^−10M): 0.355 and 0.341 and 0.346
- Avg. % con (NHBE; deguelin 10^−12M): 0.90 % con
- MTT value, mean of replicates (unheaded line) (NHBE; deguelin 10^−12M): 0.386
- MTT value, replicate (unheaded line) (NHBE; deguelin 10^−12M): 0.417 and 0.365 and 0.377
- Avg. % con (H358; deguelin 10^−6M): 0.68 % con
- MTT value, mean of replicates (unheaded line) (H358; deguelin 10^−6M): 0.111
- MTT value, replicate (unheaded line) (H358; deguelin 10^−6M): 0.108 and 0.113 and 0.112
- Avg. % con (H358; deguelin 10^−8M): 0.74 % con
- MTT value, mean of replicates (unheaded line) (H358; deguelin 10^−8M): 0.122
- MTT value, replicate (unheaded line) (H358; deguelin 10^−8M): 0.114 and 0.128 and 0.125
- Avg. % con (H358; deguelin 10^−10M): 0.79 % con
- MTT value, mean of replicates (unheaded line) (H358; deguelin 10^−10M): 0.129
- MTT value, replicate (unheaded line) (H358; deguelin 10^−10M): 0.122 and 0.12 and 0.146
- Avg. % con (H358; deguelin 10^−12M): 0.87 % con
- MTT value, mean of replicates (unheaded line) (H358; deguelin 10^−12M): 0.143
- MTT value, replicate (unheaded line) (H358; deguelin 10^−12M): 0.148 and 0.143 and 0.139
- Avg. % con ([2]; deguelin 10^−6M): 0.82 % con
- MTT value, mean of replicates (unheaded line) ([2]; deguelin 10^−6M): 0.304
- MTT value, replicate (unheaded line) ([2]; deguelin 10^−6M): 0.306 (2×) and 0.299 and 0.305
- Avg. % con ([2]; deguelin 10^−8M): 0.78 % con
- MTT value, mean of replicates (unheaded line) ([2]; deguelin 10^−8M): 0.2908
- MTT value, replicate (unheaded line) ([2]; deguelin 10^−8M): 0.288 and 0.291 and 0.283 and 0.301
- Avg. % con ([2]; deguelin 10^−10M): 0.90 % con
- MTT value, mean of replicates (unheaded line) ([2]; deguelin 10^−10M): 0.3348
- MTT value, replicate (unheaded line) ([2]; deguelin 10^−10M): 0.337 and 0.327 and 0.343 and 0.332
- Avg. % con ([2]; deguelin 10^−12M): 1.01 % con
- MTT value, mean of replicates (unheaded line) ([2]; deguelin 10^−12M): 0.3768
- MTT value, replicate (unheaded line) ([2]; deguelin 10^−12M): 0.392 and 0.386 and 0.367 and 0.362
- Avg. % con (H226B; deguelin 10^−6M): 0.34 % con
- MTT value, mean of replicates (unheaded line) (H226B; deguelin 10^−6M): 0.113
- MTT value, replicate (unheaded line) (H226B; deguelin 10^−6M): 0.117 (2×) and 0.106
- Avg. % con (H226B; deguelin 10^−8M): 0.46 % con
- MTT value, mean of replicates (unheaded line) (H226B; deguelin 10^−8M): 0.150
- MTT value, replicate (unheaded line) (H226B; deguelin 10^−8M): 0.153 and 0.147 and 0.149
- Avg. % con (H226B; deguelin 10^−10M): 0.86 % con
- MTT value, mean of replicates (unheaded line) (H226B; deguelin 10^−10M): 0.283
- MTT value, replicate (unheaded line) (H226B; deguelin 10^−10M): 0.295 and 0.282 and 0.272
- Avg. % con (H226B; deguelin 10^−12M): 0.91 % con
- MTT value, mean of replicates (unheaded line) (H226B; deguelin 10^−12M): 0.299
- MTT value, replicate (unheaded line) (H226B; deguelin 10^−12M): 0.274 and 0.32 and 0.304
- pAkt level, time course ([3]; 10^−7 M deguelin): reduced after 7 h of treatment and was virtually undetectable after 14 h
- levels of pAkt (Ser473) and pGSK-3β (Ser9) ([3]; time-dependent, Akt, GSK-3α/β and β-Actin not affected): decreased
- proliferation of HUVEC cells (HUVEC cells): Inhibition of cell proliferation was observed

— US20060128792A1, “Deguelin as a chemopreventive agent for lung cancer” (priority 2002, published 2006)
